Data from patent US7491794B2, “Macrocyclic compounds as inhibitors of viral replication” (Intermune, Inc., priority 2003, dated 2009).

How the values were obtained:
[1] = system: HCV sub-genomic replicon, GS4.3; assay: Quantitation by ELISA of NPTII in the HCV sub-genomic replicon, GS4.3, Section B; assay type: cell-based; conditions: Hepatitis C virus; GS4.3 cells, 72 h incubation; read-out: Replicon EC50
Excerpt: Quantitation by ELISA of the Selectable Marker Protein, Neomycin Phosphotransferase II (NPTII) in the HCV Sub-Genomic Replicon, GS4.3
The HCV sub-genomic replicon (1377/NS3-3′, accession No. AJ242652), stably maintained in HuH-7 hepatoma cells, was created by Lohmann et al. Science 285: 110-113 (1999). The replicon-containing cell culture, designated GS4.3, was obtained from Dr. Christoph Seeger of the Institute for Cancer Research, Fox Chase Cancer Center, Philadelphia, Pa.
GS4.3 cells were maintained at 37° C., 5% CO2, in DMEM (Gibco 11965-092) supplemented with L-glutamine 200 mM (100×) (Gibco25030-081), non-essential amino acids (NEAA)(Biowhittaker 13-114E), heat-inactivated (HI) Fetal Bovine Serum(FBS)(Hyclone SH3007.03) and 750 μg/ml geneticin (G418)(Gibco 10131-035). Cells were sub-divided 1:3 or 4 every 2-3 days.
24 hours prior to the assay, GS4.3 cells were collected, counted, and plated in 96-well plates (Costar 3585) at 7500 cells/well in 100 μl standard maintenance medium (above) and incubated in the conditions above. To initiate the assay, culture medium was removed, cells were washed once with PBS (Gibco 10010-023) and 90 μl Assay Medium (DMEM, L-glutamine, NEAA, 10% HI FBS, no G418) was added. Inhibitors were made as a 10× stock in Assay Medium, (3-fold dilutions from 10 μM to […] final concentration, final DMSO concentration 1%), 10 μl were added to duplicate wells, plates were rocked to mix, and incubated as above for 72 h.
An NPTII ELISA kit was obtained from AGDIA, Inc. (Compound direct ELISA test system for Neomycin Phosphotransferase II, PSP 73000/4800). Manufacturer's instructions were followed, with some modifications. 10×PEB-1 lysis buffer was made up to include 500 μM PMSF (Sigma P7626, 50 mM stock in isopropanol). After 72 h incubation, cells were washed once with PBS and 150 μl PEB-1 with PMSF was added per well. Plates were agitated vigorously for 15 minutes, room temperature, then frozen at −70° C. Plates were thawed, lysates were mixed thoroughly, and 100 μl were applied to an NPTII Elisa plate. A standard curve was made. Lysate from DMSO-treated control cells was pooled, serially diluted with PEB-1 with PMSF, and applied to duplicate wells of the ELISA plate, in a range of initial lysate amount of 150u1-2.5 ul. In addition, 100 μl buffer alone was applied in duplicate as a blank. Plates were sealed and gently agitated at room temperature for 2 h. Following capture incubation, the plates were washed 5×300 μl with PBS-T (0.5% Tween-20, PBS-T was supplied in the ELISA kit). For detection, a 1× dilution of enzyme conjugate diluent MRS-2 (5×) was made in PBS-T, into which 1:100 dilutions of enzyme conjugates A and B were added, as per instructions. Plates were resealed, and incubated with agitation, covered, room temperature, for 2 h. The washing was then repeated and 100 μl of room temperature TMB substrate was added. After approximately 30 minutes incubation (room temperature, agitation, covered), the reaction was stopped with 50 μl 3M sulfuric acid. Plates were read at 450 nm on a Molecular Devices Versamax plate reader.
Inhibitor effect was expressed as a percentage of DMSO-treated control signal, and inhibition curves were calculated using a 4-parameter equation: y=A+((B−A)/(1+((C/x)^D))), where C is half-maximal activity or EC50.

NS3-NS4A protease = target: T1, NS3-NS4A protease (Hepatitis C virus genotype 1a, UniProt P27958); assay: NS3-NS4A protease assay (NS3 inhibition assay, RETS1 substrate), Section B; assay type: biochemical; conditions: read-out: NS3-NS4A IC50
T1 construct: Recombinant E. coli or Baculovirus full-length NS3 was diluted to 3.33 μM with assay buffer; made in house; host or cells: E. coli or baculovirus (BV) system
T1 sequence (P27958 1027-1657): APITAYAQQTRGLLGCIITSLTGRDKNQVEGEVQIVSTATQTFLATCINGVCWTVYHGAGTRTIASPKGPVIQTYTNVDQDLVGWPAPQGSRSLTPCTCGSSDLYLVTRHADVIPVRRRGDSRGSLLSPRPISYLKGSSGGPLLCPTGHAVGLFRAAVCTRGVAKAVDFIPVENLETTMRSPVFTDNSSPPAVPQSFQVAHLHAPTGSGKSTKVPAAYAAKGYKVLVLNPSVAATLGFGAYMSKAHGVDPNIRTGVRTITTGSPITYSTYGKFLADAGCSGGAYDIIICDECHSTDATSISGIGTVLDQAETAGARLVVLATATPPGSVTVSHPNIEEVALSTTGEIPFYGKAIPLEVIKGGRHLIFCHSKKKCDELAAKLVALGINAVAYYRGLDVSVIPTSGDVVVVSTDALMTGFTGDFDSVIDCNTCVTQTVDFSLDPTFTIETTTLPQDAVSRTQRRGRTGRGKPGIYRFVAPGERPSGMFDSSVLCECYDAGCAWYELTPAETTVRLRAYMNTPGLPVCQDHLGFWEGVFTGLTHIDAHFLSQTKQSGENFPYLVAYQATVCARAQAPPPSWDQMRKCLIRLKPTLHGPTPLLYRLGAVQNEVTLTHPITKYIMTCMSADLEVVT
Protocol: NS3 complex formation with NS4A-2
Recombinant E. coli or Baculovirus full-length NS3 was diluted to 3.33 μM with assay buffer and the material transferred to an eppendorf tube and place in water bath in 4° C. refrigerator. The appropriate amount of NS4A-2 to 8.3 mM in assay buffer was added to equal the volume of NS3 in step 2.1.1 (conversion factor −3.8 mg/272 μL assay buffer). The material was transferred to an eppendorf tube and placed in a water bath in a 4° C. refrigerator.
After equilibration to 4° C., equal volumes of NS3 and NS4A-2 solutions were combined in an eppendorf tube, mixed gently with a manual pipettor, and the mixture incubated for 15 minutes in the 4° C. water bath. Final concentrations in the mixture were 1.67 μM NS3, 4.15 mM NS4A-2 (2485-fold molar excess NS4A-2).
After 15 minutes at 4° C., the NS3/NS4A-2 eppendorf tube was removed and placed in a room temperature water bath for 10 minutes. NS3/NS4A-2 was aliquoted at appropriate volumes and store at −80° C. (E. coli NS3 run at 2 nM in assay, aliquot at 25 μL. BV NS3 run at 3 nM in assay, aliquot at 30 μL.
Step 2.2.5. Sample compounds were dissolved to 10 mM in DMSO then diluted to 2.5 mM (1:4) in DMSO.
Step 2.2.6. The E. coli NS3/NS4A-2 was diluted to 4 nM NS3 (1:417.5 of 1.67 μM stock−18 μL 1.67 μM stock+7497 μL assay buffer).
The BV NS3/NS4A-2 was diluted to 6 nM NS3 (1:278.3 of 1.67 μM stock−24 μL 1.67 μM stock+6655 μL assay buffer).
Step 2.2.7. Using the manual multichannel pipettor, and being careful not to introduce bubbles into the plate, 50 μL assay buffer was added to wells A01-H01 of a black Costar 96-well polypropylene storage plate.
Step 2.2.8. Using the manual multichannel pipettor, and being careful not to introduce bubbles into the plate, 50 μL of diluted NS3/NS4A-2 from step 2.2.6 was added to wells A02-H12 of plate in step 2.2.7.
Step 2.2.9. Using the manual multichannel pipettor, and being careful not to introduce bubbles into the plate, 25 μL of the wells in drug dilution plate in step 2.2.5 were transferred to corresponding wells in assay plate in step 2.2.8. The tips on multichannel pipettor were changed for each row of compounds transferred.
Step 2.2.10. Using the manual multichannel pipettor, and being careful not to introduce bubbles into the plate, the wells from the assay plate in step 2.2.9 were mixed by aspirating and dispensing 35 μL of the 75 μL in each well five times. The tips on multichannel pipettor were changed for each row of wells mixed.
Step 2.2.11. The plate was covered with a polystyrene plate lid, and the plate from step 2.2.10 containing NS3 protease and sample compounds was pre-incubated 10 minutes at room temperature.
While the plate from step 2.2.11 was pre-incubating, the RETS1 substrate was diluted in a 15 mL polypropylene centrifuge tube. The RETS1 substrate was diluted to 8 μM (1:80.75 of 646 μM stock−65 μL 646 μM stock+5184 μL assay buffer).
After the plate in step 2.2.11 was done pre-incubating, and using the manual multichannel, 25 μL of substrate was added to all wells on the plate. The contents of the wells were quickly mixed, as in step 2.2.10, but mixing 65 μL of the 100 μL in the wells.
The plate was read in kinetic mode on the Molecular Devices SpectraMax Gemini XS plate reader. Reader settings: Read time: 30 minutes, Interval: 36 seconds, Reads: 51, Excitation λ: 335 nm, Emission λ: 495 nm, cutoff: 475 nm, Automix: off, Calibrate: once, PMT: high, Reads/well: 6, Vmax pts: 21 or 28/51 depending on length of linearity of reaction.
IC50s were determined using a four parameter curve fit equation, and converted to Ki's using the following Km's:
where Ki=IC50/(1+[S]/Km))

O=C(N[C@H]1CCCCC/C=C\[C@@H]2C[C@@]2(C(=O)O)NC(=O)[C@@H]2C[C@@H](OC(=O)N3CCc4c(F)cccc4C3)CN2C1=O)OC1CCCC1 [AR00304074, (1S,4R,6S,14S,18R)-14-Cyclopentyloxycarbonylamino-18-(5-fluoro-3,4-dihydro-1H-isoquinoline-2-carbonyloxy)-2,15-dioxo-3,16-diaza-tricyclo[14.3.0.0^4,6]nonadec-7-ene-4-carboxylic acid]
EC50 [1]: < 10000 nM | IC50 (NS3-NS4A protease): < 1000 nM

COc1cccc(CC(=O)N[C@H]2CCCCC/C=C\[C@@H]3C[C@@]3(C(=O)NS(=O)(=O)C3CC3)NC(=O)[C@@H]3C[C@@H](OC(=O)N4Cc5cccc(F)c5C4)CN3C2=O)c1 [AR00340178, (1S,4R,6S,14S,18R)-4-Fluoro-1,3-dihydro-isoindole-2-carboxylic acid 4-cyclopropanesulfonylaminocarbonyl-14-[2-(3-methoxy-phenyl)-acetylamino]-2,15-dioxo-3,16-diaza-tricyclo[14.3.0.0^4,6]nonadec-7-en-18-yl ester]
EC50 [1]: < 100 nM | IC50 (NS3-NS4A protease): < 100 nM

O=C(N[C@H]1CCCCC/C=C\[C@@H]2C[C@@]2(C(=O)O)NC(=O)[C@@H]2C[C@@H](OC(=O)N3Cc4ccccc4C3)CN2C1=O)OC1CCCC1 [AR00304076, (1S,4R,6S,14S,18R)-14-Cyclopentyloxycarbonylamino-18-(1,3-dihydro-isoindole-2-carbonyloxy)-2,15-dioxo-3,16-diaza-tricyclo[14.3.0.0^4,6]nonadec-7-ene-4-carboxylic acid]
EC50 [1]: < 1000 nM | IC50 (NS3-NS4A protease): < 100 nM

CC(C)(C)OC(=O)N[C@H]1CCCCC/C=C\[C@@H]2C[C@@]2(C(=O)NS(=O)(=O)c2cc(C(=O)O)ccc2Cl)NC(=O)[C@@H]2C[C@@H](OC(=O)N3Cc4ccccc4C3)CN2C1=O [AR00365388, (1S,4R,6S,14S,18R)-1,3-Dihydro-isoindole-2-carboxylic acid 14-tert-butoxycarbonylamino-4-(5-carboxy-2-chloro-benzenesulfonylaminocarbonyl)-2,15-dioxo-3,16-diaza-tricyclo[14.3.0.0^4,6]nonadec-7-en-18-yl ester]
IC50 (NS3-NS4A protease): < 100 nM

Cc1nc2c(s1)CN(C(=O)O[C@@H]1C[C@H]3C(=O)N[C@]4(C(=O)O)C[C@H]4/C=C\CCCCC[C@H](NC(=O)OC(C)(C)C)C(=O)N3C1)CC2 [AR00304158, (1S,4R,6S,14S,18R)-14-tert-Butoxycarbonylamino-18-(2-methyl-6,7-dihydro-4H-thiazolo[5,4-c]pyridine-5-carbonyloxy)-2,15-dioxo-3,16-diaza-tricyclo[14.3.0.0^4,6]nonadec-7-ene-4-carboxylic acid]
IC50 (NS3-NS4A protease): < 50000 nM

CC(C)(C)OC(=O)N[C@H]1CCCCC/C=C\[C@H]2C[C@]2(C(=O)O)NC(=O)[C@@H]2C[C@@H](OC(=O)N3CCc4ccccc4C3)CN2C1=O [AR00220122, (1S,4S,6R,14S,18R)-14-tert-Butoxycarbonylamino-18-(3,4-dihydro-1H-isoquinoline-2-carbonyloxy)-2,15-dioxo-3,16-diaza-tricyclo[14.3.0.0^4,6]nonadec-7-ene-4-carboxylic acid]
IC50 (NS3-NS4A protease): < 50000 nM

CC(C)NCCOc1ccc2c(c1)CN(C(=O)O[C@@H]1C[C@H]3C(=O)N[C@]4(C(=O)O)C[C@H]4/C=C\CCCCC[C@H](NC(=O)OC(C)(C)C)C(=O)N3C1)C2 [AR00371948, (1S,4R,6S,14S,18R)-14-tert-Butoxycarbonylamino-18-[5-(2-isopropylamino-ethoxy)-1,3-dihydro-isoindole-2-carbonyloxy]-2,15-dioxo-3,16-diaza-tricyclo[14.3.0.0^4,6]nonadec-7-ene-4-carboxylic acid]
IC50 (NS3-NS4A protease): < 100 nM

CC(C)(C)OC(=O)N[C@H]1CCCCC/C=C\[C@@H]2C[C@@]2(C(=O)O)NC(=O)[C@@H]2C[C@@H](OC(=O)N3Cc4ccc(OCCN5CCOCC5)cc4C3)CN2C1=O [AR00371946, (1S,4R,6S,14S,18R)-14-tert-Butoxycarbonylamino-18-[5-(2-morpholin-4-yl-ethoxy)-1,3-dihydro-isoindole-2-carbonyloxy]-2,15-dioxo-3,16-diaza-tricyclo[14.3.0.0^4,6]nonadec-7-ene-4-carboxylic acid]
IC50 (NS3-NS4A protease): < 100 nM

CC(C)(C)OC(=O)N[C@H]1CCCCC/C=C\[C@@H]2C[C@@]2(C(=O)O)NC(=O)[C@@H]2C[C@@H](OC(=O)N3CCc4ncncc4C3)CN2C1=O [AR00304183, (1S,4R,6S,14S,18R)-14-tert-Butoxycarbonylamino-18-(7,8-dihydro-5H-pyrido[4,3-d]pyrimidine-6-carbonyloxy)-2,15-dioxo-3,16-diaza-tricyclo[14.3.0.0^4,6]nonadec-7-ene-4-carboxylic acid]
IC50 (NS3-NS4A protease): < 50000 nM
